According to DBAASP:
≈ marks a conversion by molar mass, not a printed value. Each block holds one compound with its values, some of them ahead of it.

Assays:
Test in all cases: ≥ marks a high value that may be exact or a test limit, other limits are often not marked, values filed in µg/mL are converted to µM
[1] = system: Staphylococcus aureus ATCC 43300
[2] = system: Enterococcus faecalis ATCC 29212
[3] = system: Salmonella enterica subsp. enterica serovar Pullorum C79-13
[4] = system: Pseudomonas aeruginosa ATCC 27853
[5] = system: Escherichia coli ATCC 25922
Escherichia coli UB1005 = system: Escherichia coli UB1005
[6] = system: Staphylococcus epidermidis ATCC 12228
[7] = system: Staphylococcus aureus ATCC 29213
[8] = system: Salmonella enterica subsp. enterica serovar Typhimurium C77-31
[9] = system: Bacillus subtilis CMCC 63501
Micrococcus luteus = system: Micrococcus luteus
[10] = system: Bacillus subtilis ATCC 23857
[11] = system: Corynebacterium glutamicum ATCC 13032
[12] = system: Candida albicans ATCC 10231
[13] = system: Staphylococcus aureus ATCC 9144
Bacillus megaterium = system: Bacillus megaterium
Aureobasidium pullulans = system: Aureobasidium pullulans
[14] = system: Staphylococcus aureus NCTC 8325-4
[15] = system: Pseudomonas aeruginosa PAO1
Escherichia coli K-12 = system: Escherichia coli K-12
Klebsiella pneumoniae = system: Klebsiella pneumoniae
[16] = system: Staphylococcus aureus ATCC 25923
[17] = system: Pseudomonas aeruginosa ATCC 15442
[18] = system: Staphylococcus saprophyticus
[19] = system: Bacillus subtilis CCT 2471
[20] = system: Staphylococcus aureus ATCC 6538
Candida albicans = system: Candida albicans
[21] = system: Staphylococcus epidermidis
[22] = system: Escherichia coli CCT 1371
Pseudomonas aeruginosa = system: Pseudomonas aeruginosa
Acinetobacter baumannii = system: Acinetobacter baumannii
Enterococcus faecalis = system: Enterococcus faecalis
Staphylococcus aureus = system: Staphylococcus aureus
Aspergillus fumigatus = system: Aspergillus fumigatus
Escherichia coli = system: Escherichia coli
[23] = system: Salmonella enterica subsp. enterica serovar Typhimurium ATCC 14028
Proteus mirabilis = system: Proteus mirabilis
Streptococcus pyogenes = system: Streptococcus pyogenes

Compound: C[C@H](NC(=O)[C@H](CCCCN)NC(=O)[C@H](Cc1c[nH]c2ccccc12)NC(=O)CNC(=O)[C@H](Cc1c[nH]c2ccccc12)NC(=O)[C@H](Cc1c[nH]c2ccccc12)NC(=O)[C@H](CCCCN)NC(=O)[C@H](CCCCN)NC(=O)CN)C(=O)N[C@@H](CCCCN)C(N)=O [GKKWWGWKAK]
MIC (Micrococcus luteus): 12.2 µM (≈ 15.6 µg/mL)
MIC [10]: 12.2 µM (≈ 15.6 µg/mL)
MIC [4]: 196 µM (≈ 250 µg/mL)
MIC [11]: 1.57 µM (≈ 2 µg/mL)
MIC [12]: 24.6 µM (≈ 31.3 µg/mL)
MIC [5]: 24.6 µM (≈ 31.3 µg/mL)
MIC [13]: ≥ 196 µM
MIC (Bacillus megaterium): 0.785 µM (≈ 0.999 µg/mL)
MIC (Aureobasidium pullulans): 24.6 µM (≈ 31.3 µg/mL)

Compound: CC[C@H](C)[C@H](N)C(=O)N[C@@H](CCCCN)C(=O)N[C@@H](CCCCN)C(=O)N[C@H](C(=O)N[C@H](C(=O)N[C@@H](CCCCN)C(=O)N[C@@H](CCCCN)C(=O)N[C@H](C(=O)N[C@H](C(=O)N[C@@H](CCCCN)C(N)=O)[C@@H](C)CC)[C@@H](C)CC)[C@@H](C)CC)[C@@H](C)CC [IKKIIKKIIK]
MIC [14]: ≥ 500 µM
MIC [15]: > 500 µM
MIC (Escherichia coli K-12): ≥ 500 µM
MIC (Klebsiella pneumoniae): > 500 µM

Compound: CC(C)C[C@H](NC(=O)[C@H](CC(C)C)NC(=O)[C@H](CCCCN)NC(=O)[C@H](CCCCN)NC(=O)[C@H](C)NC(=O)[C@H](CC(C)C)NC(=O)[C@H](C)NC(=O)[C@H](CCCCN)NC(=O)[C@H](CC(C)C)NC(=O)[C@H](Cc1c[nH]c2ccccc12)NC(=O)[C@H](Cc1c[nH]c2ccccc12)NC(=O)[C@H](CCCN=C(N)N)NC(=O)[C@H](Cc1c[nH]c2ccccc12)NC(=O)[C@H](CCCCN)NC(=O)[C@@H](N)CCCCN)C(N)=O [KKWRWWLKALAKKLL]
MIC (Pseudomonas aeruginosa): 0.61 µM (≈ 1.2 µg/mL)
MIC (Acinetobacter baumannii): 0.203 µM (≈ 0.4 µg/mL)
MIC (Enterococcus faecalis): 0.356 µM (≈ 0.7 µg/mL)
MIC (Staphylococcus aureus): 0.254 µM (≈ 0.5 µg/mL)

Compound: CC[C@H](C)[C@H](NC(=O)CNC(=O)[C@H](CCCN=C(N)N)NC(=O)[C@H](Cc1ccc(O)cc1)NC(=O)[C@H](CC(C)C)NC(=O)[C@H](CCCCN)NC(=O)CNC(=O)[C@H](Cc1ccccc1)NC(=O)[C@@H](N)Cc1c[nH]c2ccccc12)C(=O)N[C@H](C(=O)N[C@@H](CO)C(=O)N[C@H](C(=O)N[C@H](C(=O)N[C@@H](CCCCN)C(=O)N[C@@H](CCCCN)C(=O)N[C@H](C(=O)N[C@@H](CCCCN)C(=O)NCC(=O)N[C@@H](CC(C)C)C(=O)N[C@@H](CC(C)C)C(=O)N[C@@H](CO)C(=O)NCC(=O)O)C(C)C)C(C)C)C(C)C)[C@@H](C)O [WFGKLYRGITSVVKKVKGLLSG]
MIC (Pseudomonas aeruginosa): 2.6 µM (≈ 6.34 µg/mL)
MIC (Acinetobacter baumannii): 1.3 µM (≈ 3.17 µg/mL)
MIC (Klebsiella pneumoniae): 1.3 µM (≈ 3.17 µg/mL)
MIC (Enterococcus faecalis): 2.6 µM (≈ 6.34 µg/mL)
MIC [21]: 2.6 µM (≈ 6.34 µg/mL)
MIC (Escherichia coli): 1.3 µM (≈ 3.17 µg/mL)
MIC (Staphylococcus aureus): 10.3 µM (≈ 25.1 µg/mL)

Compound: NC(N)=NCCC[C@H](NC(=O)[C@H](CCCN=C(N)N)NC(=O)[C@H](CCCN=C(N)N)NC(=O)[C@H](CCCN=C(N)N)NC(=O)[C@H](CCCN=C(N)N)NC(=O)[C@H](CCCN=C(N)N)NC(=O)[C@H](CCCN=C(N)N)NC(=O)[C@H](CCCN=C(N)N)NC(=O)[C@H](Cc1c[nH]c2ccccc12)NC(=O)[C@@H](N)Cc1c[nH]c2ccccc12)C(=O)O [WWRRRRRRRR]
MIC (Proteus mirabilis): ≥ 39 µM
MIC (Streptococcus pyogenes): 0.61 µM (≈ 1 µg/mL)
MIC (Pseudomonas aeruginosa): > 39 µM
MIC (Staphylococcus aureus): 5.49 µM (≈ 9 µg/mL)

Now from value to compound:

MIC [1]: > 128 µM
MIC [2]: > 128 µM
MIC [3]: 16 µM (≈ 32.5 µg/mL)
MIC [4]: > 128 µM
MIC [5]: 32 µM (≈ 65 µg/mL)
MIC (Escherichia coli UB1005): ≥ 128 µM
MIC [6]: > 128 µM
MIC [7]: > 128 µM
MIC [8]: ≥ 128 µM
MIC [9]: ≥ 128 µM
Compound: CC[C@H](C)[C@H](NC(=O)[C@H](CCCN=C(N)N)NC(=O)[C@H](CCCCN)NC(=O)[C@H](Cc1ccccc1)NC(=O)[C@H](CCC(=O)O)NC(=O)[C@H](CCCCN)NC(=O)CN)C(=O)N[C@H](C(=O)N[C@@H](Cc1c[nH]c2ccccc12)C(=O)N[C@@H](CC(C)C)C(=O)N[C@@H](CO)C(=O)N[C@@H](CCCCN)C(=O)N[C@H](C(=O)N[C@@H](C)C(=O)N[C@@H](CCCCN)C(=O)N[C@@H](CCCCN)C(=O)N[C@@H](CC(C)C)C(N)=O)[C@@H](C)O)C(C)C [GKEFKRIVWLSKTAKKL]

MIC [4]: 12.5 µM (≈ 18.2 µg/mL)
MIC [11]: 1.6 µM (≈ 2.33 µg/mL)
MIC [12]: 25 µM (≈ 36.4 µg/mL)
MIC [5]: 12.5 µM (≈ 18.2 µg/mL)
MIC [13]: ≥ 100 µM
MIC (Aureobasidium pullulans): ≥ 50 µM
Compound: CC(C)[C@H](NC(=O)[C@H](CCCCN)NC(=O)[C@H](C)NC(=O)[C@@H](NC(=O)[C@@H](NC(=O)[C@H](CCCN=C(N)N)NC(=O)[C@H](CCCN=C(N)N)NC(=O)[C@H](Cc1c[nH]c2ccccc12)NC(=O)[C@H](Cc1c[nH]c2ccccc12)NC(=O)CN)[C@@H](C)O)C(C)C)C(=O)N[C@@H](C)C(=O)N[C@@H](CCCCN)C(N)=O [GWWRRTVAKVAK]

MIC [16]: 6.56 µM (≈ 10 µg/mL)
MIC [17]: ≥ 65.6 µM
MIC [18]: 16.4 µM (≈ 25 µg/mL)
MIC [19]: ≥ 65.6 µM
MIC [20]: 65.6 µM (≈ 100 µg/mL)
MIC [5]: 16.4 µM (≈ 25 µg/mL)
MIC (Candida albicans): > 65.6 µM
MIC [21]: ≥ 32.8 µM
MIC [22]: ≥ 32.8 µM
Compound: CC[C@H](C)[C@H](N)C(=O)N[C@@H](CC(N)=O)C(=O)N[C@@H](CC(C)C)C(=O)N[C@@H](CC(C)C)C(=O)N[C@@H](CCCCN)C(=O)N[C@H](C(=O)N[C@@H](C)C(=O)N[C@@H](CCCCN)C(=O)NCC(=O)N[C@H](C(=O)N[C@H](C(=O)N[C@@H](CCCCN)C(=O)N[C@@H](CO)C(=O)N[C@@H](CC(C)C)C(=O)O)[C@@H](C)CC)[C@@H](C)CC)[C@@H](C)CC [INLLKIAKGIIKSL]

MIC (Candida albicans): 469 µM (≈ 1000 µg/mL)
MIC (Aspergillus fumigatus): ≥ 117 µM
Compound: CC(C)C[C@H](NC(=O)[C@H](Cc1ccccc1)NC(=O)[C@@H]1CCCN1C(=O)[C@H](Cc1c[nH]c2ccccc12)NC(=O)[C@H](CS)NC(=O)[C@@H](NC(=O)[C@H](Cc1c[nH]c2ccccc12)NC(=O)[C@@H]1CCCN1C(=O)[C@H](Cc1ccccc1)NC(=O)[C@H](CCCN=C(N)N)NC(=O)[C@H](CCCN=C(N)N)NC(=O)[C@@H](N)CCCN=C(N)N)C(C)C)C(=O)N[C@@H](CCCN=C(N)N)C(=O)N[C@@H](CCCN=C(N)N)C(=O)N[C@@H](CCCN=C(N)N)C(=O)O [RRRFPWVCWPFLRRR]

MIC [2]: 4 µM (≈ 6.29 µg/mL)
MIC [3]: 2 µM (≈ 3.15 µg/mL)
MIC [4]: 8 µM (≈ 12.6 µg/mL)
MIC [5]: 2 µM (≈ 3.15 µg/mL)
MIC (Escherichia coli UB1005): 4 µM (≈ 6.29 µg/mL)
MIC [6]: 4 µM (≈ 6.29 µg/mL)
MIC [23]: 8 µM (≈ 12.6 µg/mL)
MIC [7]: 4 µM (≈ 6.29 µg/mL)
MIC [9]: 4 µM (≈ 6.29 µg/mL)
Compound: C[C@H](NC(=O)[C@H](C)NC(=O)[C@H](CCCCN)NC(=O)[C@H](C)NC(=O)[C@H](C)NC(=O)[C@H](C)NC(=O)[C@H](CCCCN)NC(=O)[C@H](Cc1c[nH]c2ccccc12)NC(=O)[C@@H](N)Cc1c[nH]c2ccccc12)C(=O)N[C@@H](C)C(=O)N[C@@H](CCCCN)C(=O)N[C@@H](Cc1c[nH]c2ccccc12)C(=O)N[C@@H](Cc1c[nH]c2ccccc12)C(N)=O [WWKAAAKAAAKWW]
